According to patent publication US9884832B2 (priority 2011, dated 2018):

Biological target: AM2 S31 (wild-type serine at position 31 in the M2 protein), influenza virus A/Udorn/72 (Influenza A virus, UniProt P0DOF5)
Experiment: cell-based
Conditions: 100 uM; Xenopus oocytes; activity range class

Sequence of AM2 S31 (wild-type serine at position 31 in the M2 protein), influenza virus A/Udorn/72 (P0DOF5 whole entry, looked up): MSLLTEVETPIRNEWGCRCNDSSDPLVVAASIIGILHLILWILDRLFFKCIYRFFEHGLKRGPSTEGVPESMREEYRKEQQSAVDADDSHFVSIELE

SMILES	S31 OOcyte Inhibition at 100 uM (%)
F[B-](F)(F)C[NH2+]C12CC3CC(CC(C3)C1)C2 [Example 204a, N-[(Trifluoro-4-boranyl)methyl]adamantan-1-aminium]	A ((A)=31-95%)

Same assay, conditions: 100 uM; Xenopus oocytes; activity range class; read-out: S31 OOcyte Inhibition at 100 uM (%)

SMILES	inhibition at 100 µM [%]
OC12CC3CC(C1)CC(NCc1cc(-c4ccccc4)on1)(C3)C2 [Example 194a, (1s,3r,5R,7S)-3-(((5-phenylisoxazol-3-yl)methyl)amino)adamantan-1-ol]	0 to 30
OC12CC3CC(C1)CC(NCc1cc4cc(Br)sc4s1)(C3)C2 [Example 195a, 3-[(5-Bromo-thieno[2,3-b]thiophen-2-ylmethyl)-amino]-adamantan-1-ol]	0 to 30
Oc1ccc(CNC23CC4CC(CC(O)(C4)C2)C3)c(O)c1 [Example 196a, 4-[(3-Hydroxy-adamantan-1-ylamino)-methyl]-benzene-1,3-diol]	0 to 30
C(#Cc1ccccc1)CNC12CC3CC(CC(C3)C1)C2 [Example 198a, N-(3-phenylprop-2-yn-1-yl)adamantan-1-amine]	0 to 30
C(=C\c1ccccc1)/CNC12CC3CC(CC(C3)C1)C2 [Example 199a, N-cinnamyladamantan-1-amine]	0 to 30
Clc1ccc(/C=C/CNC23CC4CC(CC(C4)C2)C3)cc1 [Example 200a, N-((E)-3-(4-chlorophenyl)allyl)adamantan-1-amine]	0 to 30
COc1ccc2nc(CN(Cc3nc4ccc(OC)cc4[nH]3)C34CC5CC(CC(C5)C3)C4)[nH]c2c1 [Example 201a, Adamantan-1-yl-bis-(6-methoxy-1H-benzoimidazol-2-ylmethyl)-amine]	0 to 30
Cc1ncc(CN(Cc2cnc(C)s2)C23CC4CC(CC(C4)C2)C3)s1 [Example 202a, N,N-bis((2-methylthiazol-5-yl)methyl)adamantan-1-amine]	0 to 30
c1ccn2c(CNC34CC5CC(CC(C5)C3)C4)cnc2c1 [Example 203a, Adamantan-1-yl-imidazo[1,2-a]pyridin-3-ylmethyl-amine]	31 to 95
c1csc(-c2ccc(CNC3C4CC5CC(C4)CC3C5)s2)c1 (centres unmarked) [Example 205a, N-([2,2′-bithiophen]-5-ylmethyl)adamantan-2-amine]	0 to 30
